According to ChEMBL document CHEMBL5390237, “Discovery of Selective Histone Deacetylase 1 and 2 Inhibitors: Screening of a Focused Library Constructed by Click Chemistry, Kinetic Binding Analysis, and Biological Evaluation” (J Med Chem, 2023):

molecular target: Histone deacetylase 2 (Homo sapiens, UniProt Q92769); experiment: Inhibition of full-length recombinant human C-terminal GST tagged HDAC2 expressed in Sf9 insect cells using aminoluciferin peptide substrate at 100 nM preincubated for 3 hrs followed by substrate addition and measured after 30 mins by HDAC-Glo I/II chemiluminescence assay; details: time 3.5 hrs
Sequence (Q92769 whole entry): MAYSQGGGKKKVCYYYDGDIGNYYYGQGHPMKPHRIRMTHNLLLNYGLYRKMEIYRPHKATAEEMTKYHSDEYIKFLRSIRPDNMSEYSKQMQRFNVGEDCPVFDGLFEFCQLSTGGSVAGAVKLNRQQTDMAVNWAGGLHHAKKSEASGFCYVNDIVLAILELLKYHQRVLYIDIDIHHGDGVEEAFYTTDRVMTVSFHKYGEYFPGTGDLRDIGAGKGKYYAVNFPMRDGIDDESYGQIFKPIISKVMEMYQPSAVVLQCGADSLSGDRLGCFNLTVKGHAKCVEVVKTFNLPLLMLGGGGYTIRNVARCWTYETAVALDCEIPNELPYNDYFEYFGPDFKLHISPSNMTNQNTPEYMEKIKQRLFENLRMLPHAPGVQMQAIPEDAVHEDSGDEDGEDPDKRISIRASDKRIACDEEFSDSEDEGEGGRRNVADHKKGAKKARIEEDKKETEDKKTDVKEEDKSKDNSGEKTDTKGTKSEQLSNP

Row | inhibition | SMILES
1 | 33% | Nc1ccc(-c2ccccc2)cc1NC(=O)CCc1cn(CCc2ccc(C(=O)O)cc2)nn1
2 | 25% | Nc1ccc(-c2cccs2)cc1NC(=O)c1ccc(-c2cn(CCc3cccc([N+](=O)[O-])c3)nn2)cc1
3 | 1% | Nc1ccc(-c2cccs2)cc1NC(=O)c1ccc(-c2cn(CCCCCc3ccccc3)nn2)s1
4 | 3% | Nc1ccc(-c2ccc(F)cc2)cc1NC(=O)c1cn(/C=C/c2ccccc2)nn1
5 | 6% | COc1ccc(Cn2cc(CCC(=O)Nc3cc(-c4ccccc4)ccc3N)nn2)cc1
6 | 3% | Nc1ccc(-c2ccccc2)cc1NC(=O)CCc1cn(-c2ccc(O)cc2)nn1
7 | 27% | Nc1ccc(-c2cccs2)cc1NC(=O)CCc1cn(CCc2ccc([N+](=O)[O-])cc2)nn1
8 | 0% | Nc1ccc(-c2cccs2)cc1NC(=O)c1ccc(-c2cn(Cc3ccc(Oc4ccccc4)cc3)nn2)s1
9 | 26% | Nc1ccc(-c2cccs2)cc1NC(=O)c1ccc(-c2cn(CCc3ccsc3)nn2)cc1
10 | 0% | Nc1ccc(-c2ccsc2)cc1NC(=O)c1cn(CCN2CCOCC2)nn1
11 | 6% | Nc1ccc(-c2ccccc2)cc1NC(=O)c1cn(Cc2ccc3ccccc3n2)nn1
12 | 18% | Nc1ccc(-c2ccsc2)cc1NC(=O)CCc1cn(CCN2CCc3ccccc3C2)nn1
13 | 0% | Nc1ccc(-c2ccccc2)cc1NC(=O)CCc1cn(Cc2cccc(C(=O)O)c2)nn1
14 | 31% | Nc1ccc(-n2cc(C(=O)Nc3cc(-c4ccsc4)ccc3N)nn2)cc1
15 | 1% | Nc1ccc(-c2ccccc2)cc1NC(=O)CCc1cn(CCc2cccc(C(F)(F)F)c2)nn1
16 | 1% | CCc1ccc(Cn2cc(CCC(=O)Nc3cc(-c4ccccc4)ccc3N)nn2)cc1
17 | 4% | Nc1ccc(-c2cccs2)cc1NC(=O)c1cccc(-c2cn(CCc3cccc([N+](=O)[O-])c3)nn2)c1
18 | 2% | Nc1ccc(-c2cccs2)cc1NC(=O)c1ccc(-c2cn(CCCc3ccccc3)nn2)cc1
19 | 20% | COc1ccccc1CCn1cc(CCC(=O)Nc2cc(-c3ccsc3)ccc2N)nn1
20 | 0% | Nc1ccc(-c2cccs2)cc1NC(=O)CCc1cn(Cc2ccc(-c3ccccc3)cc2)nn1
21 | 0% | Nc1ccc(-c2ccccc2)cc1NC(=O)c1cn(CCc2cccc([N+](=O)[O-])c2)nn1
22 | 30% | Nc1ccc(-c2ccc(F)cc2)cc1NC(=O)CCc1cn(CCc2c[nH]c3ccccc23)nn1
23 | 22% | Nc1ccc(-c2ccc(F)cc2)cc1NC(=O)c1cn(CCN2CCc3ccccc3C2)nn1

Row | inhibition | SMILES
24 | 0% | Nc1ccc(-c2ccsc2)cc1NC(=O)CCc1cn(CC2CCCCC2)nn1
25 | 0% | Nc1ccc(-c2ccccc2)cc1NC(=O)c1cn(-c2ccc(Br)cc2)nn1
26 | 0% | Nc1ccc(-c2ccc(F)cc2)cc1NC(=O)c1cn(CCc2ccc(F)cc2)nn1
27 | 5% | Nc1ccc(-c2cccs2)cc1NC(=O)c1ccc(-c2cn(CCC34CC5CC(CC(C5)C3)C4)nn2)cc1
28 | 0% | Nc1ccc(-c2ccccc2)cc1NC(=O)c1cn(CCc2cccc(F)c2)nn1
29 | 34% | COc1ccc(CCn2cc(CCC(=O)Nc3cc(-c4ccc(F)cc4)ccc3N)nn2)cc1
30 | 0% | Nc1ccc(-c2ccccc2)cc1NC(=O)c1cn(CC(=O)Nc2ccc(F)cc2)nn1
31 | 30% | Nc1ccc(-c2cccs2)cc1NC(=O)CCc1cn(Cc2ccc3ccccc3c2)nn1
32 | 15% | Nc1ccc(-c2ccc(F)cc2)cc1NC(=O)CCc1cn(Cc2ccc3ccccc3c2)nn1
33 | 0% | Nc1ccc(-c2ccsc2)cc1NC(=O)c1cn(-c2ccc(Br)cc2)nn1
34 | 2% | Nc1ccc(-c2ccc(F)cc2)cc1NC(=O)CCc1cn(CCC2CCCCC2)nn1
35 | 7% | Cc1ccccc1CCn1cc(CCC(=O)Nc2cc(-c3ccc(F)cc3)ccc2N)nn1
36 | 4% | Nc1ccc(-c2cccs2)cc1NC(=O)CCc1cn(CCCCCCCC(=O)O)nn1
37 | 48% | Nc1ccc(-c2cccs2)cc1NC(=O)c1cccc(-c2cn(CCCCC(=O)O)nn2)c1
38 | 0% | Nc1ccc(-c2cccs2)cc1NC(=O)c1cn(CCc2ccc(F)cc2)nn1
39 | 37% | Nc1ccc(-c2ccc(F)cc2)cc1NC(=O)c1cn(Cc2nc3ccccc3[nH]2)nn1
40 | 2% | Nc1ccc(-c2ccsc2)cc1NC(=O)c1cn(CCc2ccccc2[N+](=O)[O-])nn1
41 | 11% | Nc1ccc(-c2ccccc2)cc1NC(=O)CCc1cn(CCN2CCc3ccccc3C2)nn1
42 | 0% | Nc1ccc(-c2cccs2)cc1NC(=O)c1ccc(-c2cn(CC3CCCCC3)nn2)cc1
43 | 0% | Nc1ccc(-c2ccccc2)cc1NC(=O)c1cn(CC(=O)c2ccccc2)nn1
44 | 3% | Nc1ccc(-c2cccs2)cc1NC(=O)c1cn(CCCCC(=O)O)nn1
45 | 8% | Nc1ccc(-c2ccsc2)cc1NC(=O)c1cn(CC(=O)Nc2ccc(F)cc2)nn1
46 | 27% | COc1ccc(Cn2cc(-c3ccc(C(=O)Nc4cc(-c5cccs5)ccc4N)s3)nn2)cc1

Row | inhibition | SMILES
47 | 1% | Nc1ccc(-c2cccs2)cc1NC(=O)c1cn(CCCCCc2ccccc2)nn1
48 | 41% | Nc1ccc(-c2cccs2)cc1NC(=O)c1cccc(-c2cn(CCCCCC(=O)O)nn2)c1
49 | 0% | COc1ccc(CCn2cc(C(=O)Nc3cc(-c4ccccc4)ccc3N)nn2)cc1
50 | 60% | Nc1ccc(-c2cccs2)cc1NC(=O)c1ccc(-c2cn(C[S+]([O-])c3ccccc3)nn2)s1 (centres undefined)
51 | 8% | Cc1ccc(CCn2cc(C(=O)Nc3cc(-c4ccsc4)ccc3N)nn2)cc1
52 | 0% | Nc1ccc(-c2cccs2)cc1NC(=O)c1ccc(-c2cn(Cc3cccc(-c4ccccc4)c3)nn2)cc1
53 | 23% | Nc1ccc(-c2cccs2)cc1NC(=O)c1ccc(-c2cn(CCc3ccc([N+](=O)[O-])cc3)nn2)s1
54 | 10% | Nc1ccc(-c2ccsc2)cc1NC(=O)c1cn(CCCCCCCC(=O)O)nn1
55 | 25% | COc1ccc(Cn2cc(C(=O)Nc3cc(-c4ccsc4)ccc3N)nn2)cc1
56 | 16% | Nc1ccc(-c2cccs2)cc1NC(=O)c1ccc(-c2cn(-c3ccc(O)cc3)nn2)cc1
57 | 12% | Nc1ccc(-c2ccsc2)cc1NC(=O)CCc1cn(CC(=O)c2ccccc2)nn1
58 | 0% | Nc1ccc(-c2cccs2)cc1NC(=O)c1cn(CCCCCC(=O)O)nn1
59 | 31% | Nc1ccc(-c2ccsc2)cc1NC(=O)CCc1cn(CCc2ccc(C(=O)O)cc2)nn1
60 | 8% | Nc1ccc(-c2ccc(F)cc2)cc1NC(=O)c1cn(Cc2cccc3ccccc23)nn1
61 | 9% | Nc1ccc(-c2cccs2)cc1NC(=O)CCc1cn(CC23CC4CC(CC(C4)C2)C3)nn1
62 | 0% | Nc1ccc(-c2cccnc2)cc1NC(=O)CCc1cn(CCC2CCCC2)nn1
63 | 8% | Nc1ccc(-c2cccs2)cc1NC(=O)CCc1cn(-c2ccc(I)cc2)nn1
64 | 0% | Nc1ccc(-c2ccccc2)cc1NC(=O)CCc1cn(-c2ccc([N+](=O)[O-])cc2)nn1
65 | 0% | Nc1ccc(-c2ccccc2)cc1NC(=O)CCc1cn(-c2ccc(Br)cc2)nn1
66 | 0% | Nc1ccc(-c2cccs2)cc1NC(=O)c1cccc(-c2cn(CC3CCCCC3)nn2)c1
67 | 3% | Nc1ccc(-c2cccs2)cc1NC(=O)CCc1cn(Cc2cccc(C(=O)O)c2)nn1
68 | 6% | Nc1ccc(-c2cccs2)cc1NC(=O)c1ccc(-c2cn(CCc3cccc(Cl)c3)nn2)s1
69 | 0% | Nc1ccc(-c2ccc(F)cc2)cc1NC(=O)CCc1cn(-c2cccc3ccccc23)nn1
